Assay results as given in the supplement of paper PMC11451515.

Experiments:
P12-Ichikawa [1] = assay: cell viability relative to DMSO control; higher = less cytotoxic; conditions: HPLM + 10% dialyzed FBS, 48 h
Procedure, shortened: (§1)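 Cells were incubated for 48 h at 37°C before CellTiter-Glo One luminescence was read. The cells were NOMO1 or SEM (500 cells/well) or P12-Ichikawa (1000 cells/well) leukemia cells, adapted for at least four passages in each medium and seeded in 1536-well plates (5 μl). Dosing used library compounds in DMSO applied by pin over 11 threefold points, 47 μM to 0.79 nM. Viability is the per-plate percentage of DMSO wells, with cell-free wells as background.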

SEM cells [2] = assay: as above; conditions: 48 h
Procedure, shortened: as §1

NOMO1 = assay: AUC of viability dose-response curve (% viability x log10 dose units); higher = less sensitive; conditions: 48 h
Procedure, shortened: (§2)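 Area under the curve was integrated by trapezoidal rule from a log-logistic fit of normalised viability, with curves exceeding full viability scaled and quality-control failures removed. The fit had four parameters over log10 doses. Viability came from CellTiter-Glo One luminescence, normalised per plate to DMSO and cell-free wells, after leukemia cells adapted to each medium (500 or 1000 cells/well, 1536-well plates) were exposed to library compounds in DMSO for 48 h at 37°C. The 11 threefold doses ran from 47 μM to 0.79 nM.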

P12-Ichikawa [3] = assay: as above; conditions: 48 h
Procedure, shortened: as §2

SEM cells [4] = assay: as above; conditions: 48 h
Procedure, shortened: as §2

CCn1c(-c2nonc2N)nc2cncc(CNC3CCNCC3)c21
Conditions	AUC of viability dose-response curve	cell viability [%]
NOMO1, HPLM + 10% dialyzed FBS	419	–
NOMO1, RPMI 5 mM glucose + 10% FBS	437	–
NOMO1, RPMI 5 mM glucose + 10% dialyzed FBS	443	–
P12-Ichikawa [1], 0.000781 µM	–	122
P12-Ichikawa [1], 0.00234 µM	–	123
P12-Ichikawa [1], 0.00702 µM	–	123
P12-Ichikawa [1], 0.0211 µM	–	123
P12-Ichikawa [1], 0.0632 µM	–	130
P12-Ichikawa [1], 0.19 µM	–	129
P12-Ichikawa [1], 0.569 µM	–	117
P12-Ichikawa [1], 1.71 µM	–	104
P12-Ichikawa [1], 5.12 µM	–	88.6
P12-Ichikawa [1], 15.4 µM	–	10.1
P12-Ichikawa [1], 46.1 µM	–	13.7
P12-Ichikawa [3], HPLM + 10% dialyzed FBS	399	–
P12-Ichikawa [3], RPMI 5 mM glucose + 10% FBS	424	–
P12-Ichikawa [3], RPMI 5 mM glucose + 10% dialyzed FBS	411	–
SEM cells [4], HPLM + 10% dialyzed FBS	414	–
SEM cells [4], RPMI 5 mM glucose + 10% FBS	357	–
SEM cells [4], RPMI 5 mM glucose + 10% dialyzed FBS	417	–

cell viability [%], SEM cells [2]
Conditions	HPLM + 10% dialyzed FBS	RPMI 5 mM glucose + 10% FBS	RPMI 5 mM glucose + 10% dialyzed FBS
0.000781 µM	119	101	123
0.00234 µM	121	125	126
0.00702 µM	126	124	113
0.0211 µM	134	143	131
0.0632 µM	137	144	118
0.19 µM	131	152	115
0.569 µM	129	120	137
1.71 µM	109	61.5	110
5.12 µM	96.1	58.3	100
15.4 µM	60.7	18.9	45.2
46.1 µM	30.8	15.8	22.7

CC(C)Nc1cc(-c2c[nH]c(C(=O)N[C@H](CO)c3cccc(Cl)c3)c2)c(Cl)cn1
SEM cells [2], HPLM + 10% dialyzed FBS
Conditions	cell viability [%]
0.000781 µM	105
0.00234 µM	118
0.00702 µM	125
0.0211 µM	123
0.0632 µM	141
0.19 µM	133
0.569 µM	144
1.71 µM	120
5.12 µM	98.7
15.4 µM	94.1
46.1 µM	11.3

AUC of viability dose-response curve
Conditions	NOMO1	P12-Ichikawa [3]	SEM cells [4]
HPLM + 10% dialyzed FBS	393	423	436
RPMI 5 mM glucose + 10% FBS	383	396	422
RPMI 5 mM glucose + 10% dialyzed FBS	371	394	400

CCOC(=O)[C@H](CCc1ccccc1)N[C@H]1CCc2ccccc2N(CC(=O)O)C1=O
AUC of viability dose-response curve
Conditions	NOMO1	P12-Ichikawa [3]	SEM cells [4]
HPLM + 10% dialyzed FBS	429	463	458
RPMI 5 mM glucose + 10% FBS	450	458	454
RPMI 5 mM glucose + 10% dialyzed FBS	448	457	459
